Results from patent US20100280015A1 (priority 2007, published 2010).
Where a name gives a salt, the structure may show the parent alone.

Target: α7-subtype of nicotinic receptors (Rattus norvegicus, UniProt Q05941)
Assay: biochemical
Format: binding

α7-subtype of nicotinic receptors, sequence (Q05941 23-502): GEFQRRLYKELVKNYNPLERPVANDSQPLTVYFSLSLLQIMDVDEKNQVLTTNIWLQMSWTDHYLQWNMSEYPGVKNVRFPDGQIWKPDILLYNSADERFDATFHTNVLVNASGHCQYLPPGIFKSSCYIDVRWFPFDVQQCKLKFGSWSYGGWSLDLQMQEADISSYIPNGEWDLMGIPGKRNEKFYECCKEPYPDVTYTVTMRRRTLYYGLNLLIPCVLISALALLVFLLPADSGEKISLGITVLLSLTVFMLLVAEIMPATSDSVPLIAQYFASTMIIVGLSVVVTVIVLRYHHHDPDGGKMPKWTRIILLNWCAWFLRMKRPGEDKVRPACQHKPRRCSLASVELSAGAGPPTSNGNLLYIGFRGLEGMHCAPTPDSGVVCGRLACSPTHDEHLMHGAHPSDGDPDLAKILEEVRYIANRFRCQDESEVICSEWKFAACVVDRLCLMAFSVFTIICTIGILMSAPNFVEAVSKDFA

Row | SMILES | IC50
1 | c1ccc(Oc2cccc(-c3nnc(N4CCN5CCC4CC5)o3)c2)cc1 [Compound A2, 4-[5-(3-Phenoxy-phenyl)-[1,3,4]oxadiazol-2-yl]-1,4-diaza-bicyclo[3.2.2]nonane fumaric acid salt] | < 1000 nM
2 | c1ccc(Oc2ccccc2-c2nnc(N3CCN4CCC3CC4)o2)cc1 [Compound A1, 4-[5-(2-Phenoxy-phenyl)-[1,3,4]oxadiazol-2-yl]-1,4-diaza-bicyclo[3.2.2]nonane fumaric acid salt] | < 100 nM
